Results published in paper PMC12925725, “A potent nonapeptide inhibitor for the CXCL12/HMGB1 heterocomplex: A computational and experimental approach” (Computational and Structural Biotechnology Journal, 2025).
Values belong to the molecule of their own block, whether it stands above or below them.

Legend:
HMGB1-BoxB [1] = molecular target: T1, HMGB1-BoxB (Homo sapiens, UniProt P09429); assay: Microscale thermophoresis (MST) binding to HMGB1-BoxB; details: 10 nM His-tag RED-tris-NTA labelled protein, PBS-T 0.05 % Tween 20, at least 40 min room temperature, 25 °C
T1 construct: His-tagged HMGB1-BoxB, HMGB1-BoxA, and full length HMGB1 proteins were produced at the Protein Facility; made in house
T1 sequence (P09429 95-163 limits assumed): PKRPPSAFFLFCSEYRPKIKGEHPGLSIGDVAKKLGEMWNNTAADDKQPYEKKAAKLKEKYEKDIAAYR
Procedure: (§1) His-tagged HMGB1-BoxB, HMGB1-BoxA, and full length HMGB1 proteins were produced at the Protein Facility of the Institute for Research in Biomedicine as previously described, [17], and stored in phosphate-buffered saline (PBS; product No. D8537, Sigma Aldrich, Saint Louis, USA).
(§2) Target proteins were fluorescently-labeled using the specific His-Tag Labeling Kit RED-tris-NTA 2nd Generation of NanoTemper Technologies (Product No. MO-L018), according to manufacturer instructions. A fixed 10 nM concentration of labeled target protein was mixed with sixteen 1:1 serial dilutions of the ligand peptide (see Supplementary Materials, Table S4 for the details about the concentration ranges used for the peptides). Both protein and peptide were dissolved in PBS-T buffer (0.05 % Tween™ 20, NanoTemper Technologies), and incubated for at least 40 min at room temperature. […] Finally, the data were processed by employing the dedicated MO.Affinity Analysis software v2.3 (NanoTemper Technologies GmbH, München, Germany) and the Kd values were determined based on concentration-dependent changes in normalized fluorescence (Fnorm), while the figures were generated using GraphPad Prism software v8.0.2 (GraphPad, Boston, USA). […]

HMGB1-BoxA [2] = molecular target: T2, HMGB1-BoxA (Homo sapiens, UniProt P09429); assay: Microscale thermophoresis (MST) binding to HMGB1-BoxA; details: 10 nM labelled protein, PBS-T 0.05 % Tween 20, at least 40 min room temperature, 25 °C
T2 construct: His-tagged HMGB1-BoxB, HMGB1-BoxA, and full length HMGB1 proteins were produced at the Protein Facility; made in house
T2 sequence (P09429 9-79 limits assumed): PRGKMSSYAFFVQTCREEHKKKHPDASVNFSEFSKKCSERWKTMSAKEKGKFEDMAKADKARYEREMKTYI
Procedure: as §1, §2

[3] = molecular target: T3, CXCL12/HMGB1 heterocomplex (Homo sapiens, UniProt P09429); assay: In vitro chemotaxis of human monocytes in response to the CXCL12/HMGB1 heterocomplex (Boyden chamber); assay type: cell-based; details: 1 nM CXCL12 + 300 nM HMGB1, peptide 0.1-10 μM, 90 min, four independent experiments, read-out: IC50, inhibition of monocyte migration in response to the CXCL12/HMGB1 heterocomplex
T3 construct: His-tagged HMGB1-BoxB, HMGB1-BoxA, and full length HMGB1 proteins were produced; His-tag; made in house
T3 sequence (P09429 1-215): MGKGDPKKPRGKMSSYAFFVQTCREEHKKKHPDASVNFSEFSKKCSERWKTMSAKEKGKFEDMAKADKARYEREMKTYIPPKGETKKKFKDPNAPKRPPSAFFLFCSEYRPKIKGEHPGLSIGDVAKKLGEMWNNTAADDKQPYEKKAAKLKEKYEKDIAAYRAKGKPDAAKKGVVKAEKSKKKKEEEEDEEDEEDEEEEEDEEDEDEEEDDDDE
Procedure: The murine 300.19 PreB cell line, stably transfected with the human CXCR4 [47], was cultured under standard culture conditions (5 % CO2, […], 37 °C) in RPMI-1640, supplemented with 10 % Fetal Bovine Serum, 1x non-essential amino acids, 1 mM Sodium pyruvate, 20 mM GlutaMAX, 50 μM β-Mercaptoethanol, 50 U/mL Penicillin and 50 μg/mL Streptomycin (GIBCO). Human monocytes were freshly isolated from buffy-coats obtained by spontaneous donation from healthy individuals (Central Laboratory of Swiss Red Cross, Basel, Switzerland, and Centro Trasfusionale Lugano, Switzerland, Canton Ticino Ethical Committee approval CE3428), and isolated by positive selection using CD14 microbeads (Miltenyi Biotec), as previously described.
In vitro cell migration of CXCR4 + murine 300.19 PreB cells and of freshly isolated human monocytes was performed using Boyden chambers equipped with 5 μm pore membranes, as previously described. Briefly, cells were diluted at 10^6 cell/mL in RPMI 1640, supplemented with 20 mM Hepes, pH 7.4, and 1 % pasteurized plasma protein solution, and allowed to migrate for 90 min in response to different stimuli under standard conditions (5 % CO2, […], 37 °C). CXCL12 was used at 1 nM, 10 nM or 100 nM. The CXCL12/HMGB1 heterocomplex was formed by combining 1 nM CXCL12 with 300 nM HMGB1.

human monocytes = assay: Peptide toxicity on human monocytes (AnnexinV-FITC / propidium iodide, flow cytometry); assay type: cell-based; details: 1 μM or 10 μM, 2 or 4 hours
Procedure: (§3) After incubation, cells were stained using AnnexinV-FITC and propidium iodide following the manufacturer’s instructions, and cell viability was analyzed by ﬂow cytometry in comparison to the untreated control.

[4] = system: murine CXCR4 + 300.19 PreB cell line; assay: Peptide toxicity on murine CXCR4+ 300.19 PreB cells (AnnexinV-FITC / propidium iodide, flow cytometry); assay type: cell-based; details: 1 μM or 10 μM, 2 or 4 hours
Procedure: as §3

Solubility in PBS buffer = assay type: physicochemical; details: compared with HBP08–2
HMGB1-BoxB [5] = assay: MST; 10 nM target protein labelled on its His tag (RED-tris-NTA) mixed with sixteen 1:1 serial dilutions of the peptide; PBS-T (0.05 % Tween 20); incubated at least 40 min at room temperature; 25 °C; Monolith NT.115 Pico, excitation 20 %, MST power 40 %
HMGB1-BoxA [6] = molecular target: T4, HMGB1-BoxA (RED-tris-NTA dye on the His tag (His-Tag Labeling Kit RED-tris-NTA 2nd Generation) in the MST); assay: as above; details: both partners purified
T4 chain: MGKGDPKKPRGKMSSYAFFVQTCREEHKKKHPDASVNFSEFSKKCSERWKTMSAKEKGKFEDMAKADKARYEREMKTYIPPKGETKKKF

[7] = molecular target: T5, High Mobility Group Box 1 (HMGB1), full length (UniProt P09429 1-215, RED-tris-NTA dye on the His tag (His-Tag Labeling Kit RED-tris-NTA 2nd Generation) in the MST); assay: as above; details: both partners purified
T5 construct: HMGB1, full length; also called recombinant HMGB1; source: produced at the Protein Facility of the Institute for Research in Biomedicine as previously described
T5 sequence (looked up): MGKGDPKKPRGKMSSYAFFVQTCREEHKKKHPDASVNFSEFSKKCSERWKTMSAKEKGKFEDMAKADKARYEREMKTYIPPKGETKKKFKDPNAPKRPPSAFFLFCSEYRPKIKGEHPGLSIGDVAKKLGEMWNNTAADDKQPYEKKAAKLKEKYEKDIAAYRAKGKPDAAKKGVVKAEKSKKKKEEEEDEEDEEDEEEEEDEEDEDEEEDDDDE

Molecule: CC[C@H](C)[C@H](NC(=O)[C@H](Cc1c[nH]c2ccccc12)NC(=O)[C@H](CCSC)NC(=O)[C@H](CCC(N)=O)NC(=O)[C@H](Cc1ccc(O)cc1)NC(=O)[C@H](Cc1c[nH]cn1)NC(=O)[C@H](CCCNC(=N)N)NC(=O)[C@@H]1CCCN1)C(=O)N[C@@H](Cc1c[nH]cn1)C(=O)O [HBP08–2]
Kd (HMGB1-BoxB [1]): 0.0113 ± 0.0023 µM
Kd (HMGB1-BoxA [2]): 4.2 ± 0.4 µM
IC50 [3]: 3.31 µM
toxicity on human monocytes (human monocytes): did not exhibit toxicity
toxicity on murine CXCR4+ 300.19 PreB cells [4]: did not exhibit toxicity

B2: HBP08–2 (peptide)
peptide: PRHYQMWIH
notes: Reconstituted in DMSO; also called G1P + E5Q; source: synthetic peptide, synthetized by Proteogenix (without TFA), purity about 99 %
Kd (HMGB1-BoxB [5]): 0.0113 µM
Kd (HMGB1-BoxA [6]): 4.2 ± 0.4 µM
Kd [7]: 0.0281 ± 0.007 µM

More lines, now with the values ahead:

Kd (HMGB1-BoxB [1]): 0.0153 ± 0.0019 µM
solubility in PBS buffer (Solubility in PBS buffer): lower solubility
Molecule: CC[C@H](C)[C@H](NC(=O)[C@H](Cc1c[nH]c2ccccc12)NC(=O)[C@H](CCSC)NC(=O)[C@H](CCSC)NC(=O)[C@H](Cc1ccc(O)cc1)NC(=O)[C@H](Cc1c[nH]cn1)NC(=O)[C@H](CCCNC(=N)N)NC(=O)[C@@H]1CCCN1)C(=O)N[C@@H](Cc1c[nH]cn1)C(=O)O [HBP08–3]

Kd (HMGB1-BoxB [5]): 0.0153 µM
B1: HBP08–3 (peptide)
peptide: PRHYMMWIH
